The values that follow come from ChEMBL document CHEMBL1201862, “PubChem BioAssay data set” (2004).

Test systems include EKVX; HCT-15; HOP-62; Hs-578T; LOX IMVI; MCF7; NCI-H23; NCI-H522; OVCAR-3; RPMI-8226; RXF 393; SK-MEL-2; SK-MEL-5; SK-OV-3; SNB-19.
Common to all, as to experiment: growth of human tumour cells (NCI), 48 h

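Cultured in 96-well plates, cells were exposed to test compound for 48 hours across five concentrations. Abbreviation: GI50, concentration required for 50% inhibition of growth.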 The source made the active and inactive calls. Cut-off read from the data, not from the text of the source: active = GI50 up to about 1.1 µM and inactive = higher. A value given as a limit tells only on which side of the number the result lay.

Regarding `NC12Oc3cc(O)cc(O)c3C1(c1ccc(Cl)cc1)c1c(O)cc(O)cc1O2` (stereo not given), the GI50 with EKVX was 71.8 µM (inactive); in the test on HCT-15 it was more than 100 µM; in the test on HOP-62 it was 68.9 µM (inactive); in the test on Hs-578T, 28.8 µM (inactive); with LOX IMVI, 57.4 µM (inactive); in the test with MCF7, 59.8 µM (inactive). In addition, the GI50 in the test with NCI-H23 was 46.9 µM (inactive); in the test with NCI-H522, 24.7 µM (inactive); with OVCAR-3 it was 47.6 µM (inactive); in the test on RPMI-8226, 33.4 µM (inactive); with RXF 393, 32.3 µM (inactive); in the test with SK-MEL-2 it was 36.6 µM (inactive). The GI50 with SK-MEL-5 was 37.5 µM (inactive); in the test with SK-OV-3, > 100 µM (inactive); with SNB-19, 73.1 µM (inactive).

Regarding `Cc1ccc(CN2CCN(Cc3ccc(C)o3)C(C)C2)o1` (stereo not given), the GI50 in the test with EKVX is > 100 µM (inactive); in the test on HCT-15, more than 100 µM; in the test on HOP-62 it was > 100 µM (inactive); in the test on Hs-578T, > 100 µM (inactive); in the test on LOX IMVI, > 100 µM (inactive); in the test with MCF7, > 100 µM (inactive). Also, the GI50 in the test on NCI-H23, with NCI-H522, in the test with OVCAR-3, in the test on RPMI-8226, in the test on RXF 393 and with SK-MEL-2 was > 100 µM (inactive) each time. In addition, the GI50 in the test on SK-MEL-5, in the test on SK-OV-3 and in the test on SNB-19 was > 100 µM (inactive) throughout.

Take `COCC1OC(OC2C3=C(C(C)C)CCC3(C)/C=C3\C(CCC3(O)COC)C(C)C2O)C(O)C2OC3OC12OC3(C)C1CO1` (stereo not given): the GI50 with EKVX was 37.5 µM (inactive); in the test with HCT-15 it was 25.1 µM; in the test with HOP-62, 89.5 µM (inactive); with Hs-578T it was 19.6 µM (inactive); in the test with LOX IMVI it was 22.5 µM (inactive); in the test with MCF7, 45.5 µM (inactive). The GI50 in the test with NCI-H23 is 90.2 µM (inactive); in the test on NCI-H522 it was 22.9 µM (inactive); with OVCAR-3, 26.4 µM (inactive); with RPMI-8226, 27.2 µM (inactive); in the test on RXF 393 it was 21.2 µM (inactive); in the test with SK-MEL-2, 83.6 µM (inactive). The GI50 is 18 µM (inactive) with SK-MEL-5, 51.8 µM (inactive) in the test with SK-OV-3 and 28.1 µM (inactive) in the test on SNB-19.

Regarding `CC(C)CC(C(N)=O)C(=O)NC(Cc1ccccc1)NC(=O)CNC(=O)C(C)NC(=O)C(N)Cc1ccc(O)cc1` (stereo not given), the GI50 in the test with EKVX was > 100 µM (inactive); in the test on HCT-15, more than 100 µM; in the test with HOP-62 it was > 100 µM (inactive); in the test with Hs-578T, > 100 µM (inactive); in the test with LOX IMVI it was > 100 µM (inactive); with MCF7, > 100 µM (inactive). Besides, the GI50 with NCI-H23, with NCI-H522, in the test on OVCAR-3, with RPMI-8226, in the test on RXF 393 and in the test on SK-MEL-2 was > 100 µM (inactive) in each case. Moreover, the GI50 in the test on SK-MEL-5, in the test on SK-OV-3 and with SNB-19 was > 100 µM (inactive) throughout.

Take `O=S(=O)(Cc1nc2ccccc2s1)c1nc2ccccc2s1`: the GI50 with EKVX is 18.5 µM (inactive); with HCT-15 it was 16.3 µM; in the test with HOP-62 it was 49.3 µM (inactive); in the test with Hs-578T, 19.9 µM (inactive); in the test with LOX IMVI, 10 µM (inactive); with MCF7, 18.7 µM (inactive). In addition, the GI50 in the test on NCI-H23 is 15.6 µM (inactive); with NCI-H522 it was 15.5 µM (inactive); with OVCAR-3, 14.4 µM (inactive); with RPMI-8226, 16 µM (inactive); in the test with RXF 393, 22.5 µM (inactive); with SK-MEL-2, 17.4 µM (inactive). In addition, the GI50 is 12.9 µM (inactive) in the test on SK-MEL-5, 37 µM (inactive) with SK-OV-3 and 21.5 µM (inactive) with SNB-19.
